Measured values: ChEMBL document CHEMBL1201862, “PubChem BioAssay data set” (2004)
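Five compound concentrations were applied to cells in 96-well plates for 48 hours; endpoints were derived by simple linear interpolation of the resulting dose-response curve. GI50 is the concentration that inhibits growth by half.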 Active and inactive are the calls of the source. Cut-off read from the data, not from the text of the source: active = GI50 up to about 1.1 µM and inactive = higher.

Assays:
Assay in all cases: DTP human tumour cell line panel, 48 h
U-251 = test system: U-251
KM12 = test system: KM12
HOP-92 = test system: HOP-92
MCF7 = test system: MCF7
SF-539 = test system: SF-539
HT-29 = test system: HT-29
TK-10 = test system: TK-10
CAKI-1 = test system: CAKI-1
OVCAR-4 = test system: OVCAR-4
SF-295 = test system: SF-295
MOLT-4 = test system: MOLT-4
OVCAR-5 = test system: OVCAR-5
HCT-15 = test system: HCT-15
K562 = test system: K562
MDA-MB-435 = test system: MDA-MB-435
OVCAR-8 = test system: OVCAR-8
HCT-116 = test system: HCT-116
PC-3 = test system: PC-3
HL-60 = test system: HL-60
A498 = test system: A498

Row | Compound | GI50 (U-251) | GI50 (KM12) | GI50 (HOP-92) | GI50 (MCF7) | GI50 (SF-539) | GI50 (HT-29) | GI50 (TK-10) | GI50 (CAKI-1) | GI50 (OVCAR-4) | GI50 (SF-295) | GI50 (MOLT-4) | GI50 (OVCAR-5) | GI50 (HCT-15) | GI50 (K562) | GI50 (MDA-MB-435) | GI50 (OVCAR-8) | GI50 (HCT-116) | GI50 (PC-3) | GI50 (HL-60) | GI50 (A498)
1 | Nc1ccc2c(SCCSc3c4ccccc4nc4cc(N)ccc34)c3ccccc3nc2c1 | 49.3 µM (inactive) | > 100 µM (inactive) | > 100 µM (inactive) | > 100 µM (inactive) | > 100 µM (inactive) | > 100 µM (inactive) | > 100 µM (inactive) | > 100 µM (inactive) | > 100 µM (inactive) | > 100 µM (inactive) | 15.7 µM (inactive) | > 100 µM (inactive) | > 100 µM | 38.6 µM (inactive) | > 100 µM (inactive) | > 100 µM (inactive) | 57.4 µM (inactive) | > 100 µM (inactive) |  | 
2 | CCC1C(c2cc(OC)c(OC)c(OC)c2)c2cc3c(cc2OC1N1CCOCC1)OCO3 (stereo unspecified) |  |  | 10.8 µM (inactive) | 2.84 µM (inactive) |  | 2.73 µM (inactive) |  |  | 2.12 µM (inactive) | 2.79 µM (inactive) | 1.88 µM (inactive) | 2.29 µM (inactive) | 3.08 µM |  |  | 3.93 µM (inactive) | 3.68 µM (inactive) | 2.02 µM (inactive) |  | 
3 | CC1=NN(c2ccccc2)C(=O)C1C(=O)C(=O)Nc1ccc(C)cc1C (stereo unspecified) | > 100 µM (inactive) | > 100 µM (inactive) | > 94.2 µM (inactive) | > 100 µM (inactive) | > 100 µM (inactive) | > 100 µM (inactive) | > 100 µM (inactive) | > 100 µM (inactive) | > 100 µM (inactive) | > 100 µM (inactive) | > 100 µM (inactive) | > 100 µM (inactive) | > 100 µM | > 100 µM (inactive) |  | > 100 µM (inactive) | > 100 µM (inactive) | > 100 µM (inactive) | > 100 µM (inactive) | > 100 µM (inactive)
4 | COc1c(C)c(C/C=C(\C)CCCC(C)CCCC(C)CCCC(C)C)c(OC)c2ccccc12 (stereo unspecified) | > 100 µM (inactive) | > 100 µM (inactive) | > 100 µM (inactive) | > 100 µM (inactive) | > 100 µM (inactive) | > 100 µM (inactive) | > 100 µM (inactive) | > 100 µM (inactive) | > 100 µM (inactive) | > 100 µM (inactive) | > 100 µM (inactive) | > 100 µM (inactive) | > 100 µM | > 100 µM (inactive) | > 100 µM (inactive) | > 100 µM (inactive) | > 100 µM (inactive) | > 100 µM (inactive) |  | 
5 | CC(=O)c1ccc(N2CCN(C3=CC(=O)c4c(O)ccc(O)c4C3=O)CC2)cc1 | 16.2 µM (inactive) | 51.8 µM (inactive) | 25.8 µM (inactive) | 35.9 µM (inactive) | > 100 µM (inactive) | 30.2 µM (inactive) | 61 µM (inactive) | > 100 µM (inactive) | > 100 µM (inactive) | 35 µM (inactive) | 5.38 µM (inactive) | > 100 µM (inactive) | 5.41 µM | 37.5 µM (inactive) |  | 13.1 µM (inactive) | 7.57 µM (inactive) | 66.1 µM (inactive) | 10.4 µM (inactive) | > 100 µM (inactive)
6 | CC(=O)NNC1=NN(C(C)=O)C2(S1)C(=O)Nc1ccccc12 (stereo unspecified) | > 100 µM (inactive) | > 100 µM (inactive) |  | > 100 µM (inactive) | > 100 µM (inactive) | > 100 µM (inactive) | > 100 µM (inactive) | > 100 µM (inactive) | > 100 µM (inactive) |  | > 100 µM (inactive) | > 100 µM (inactive) | > 100 µM | > 100 µM (inactive) | > 100 µM (inactive) | > 100 µM (inactive) | > 100 µM (inactive) | 45 µM (inactive) | 97.5 µM (inactive) | 
7 | CCOC(=O)C1CCC(=O)N1C(=O)c1ccc(Cl)cc1 (stereo unspecified) | > 100 µM (inactive) | > 100 µM (inactive) | > 100 µM (inactive) | > 100 µM (inactive) | > 100 µM (inactive) | > 100 µM (inactive) |  | > 100 µM (inactive) |  | > 100 µM (inactive) | > 100 µM (inactive) | > 100 µM (inactive) | > 100 µM | > 100 µM (inactive) | > 100 µM (inactive) | > 100 µM (inactive) | > 100 µM (inactive) |  | > 100 µM (inactive) | > 100 µM (inactive)
8 | COc1ccc(-c2nc(-c3cnccn3)n(C3OC(CO)C(O)C(O)C3O)n2)cc1 (stereo unspecified) | > 100 µM (inactive) | > 100 µM (inactive) | > 100 µM (inactive) | > 100 µM (inactive) | > 100 µM (inactive) | > 100 µM (inactive) | > 100 µM (inactive) |  | > 100 µM (inactive) | > 100 µM (inactive) | > 100 µM (inactive) | > 100 µM (inactive) | > 100 µM | > 100 µM (inactive) | > 100 µM (inactive) | > 100 µM (inactive) | > 100 µM (inactive) | > 100 µM (inactive) | > 100 µM (inactive) | 
9 | CC(C)(C)[Si](C)(C)OCC1OC(n2cnc3c(N)ncnc32)C(O)C1O (stereo unspecified) | > 100 µM (inactive) | 37.3 µM (inactive) |  | > 100 µM (inactive) | > 100 µM (inactive) | > 100 µM (inactive) | > 100 µM (inactive) | > 100 µM (inactive) | > 100 µM (inactive) | > 100 µM (inactive) | 39.6 µM (inactive) | > 100 µM (inactive) | > 100 µM | 70.6 µM (inactive) | > 100 µM (inactive) | > 100 µM (inactive) | > 100 µM (inactive) | 43.5 µM (inactive) | > 100 µM (inactive) | 
10 | CC(C)=CC1C(C(=O)Oc2ccccc2C(C)C)C1(C)C (stereo unspecified) | 16.7 µM (inactive) | 18.1 µM (inactive) | 25.5 µM (inactive) | 19.8 µM (inactive) |  | 16.4 µM (inactive) | 32.8 µM (inactive) | 32.4 µM (inactive) | 52 µM (inactive) | 17.7 µM (inactive) |  | 27.1 µM (inactive) | 21 µM | 25.8 µM (inactive) | 30.8 µM (inactive) | 31.7 µM (inactive) | 20.8 µM (inactive) |  | 19.1 µM (inactive) | 19.7 µM (inactive)
11 | CO[C@H]1O[C@@H]2OC3(C)CCC4[C@H](C)CCC([C@H]1C)[C@]42OO3 (stereo partly specified) | > 100 µM (inactive) |  | > 100 µM (inactive) |  | > 100 µM (inactive) | > 100 µM (inactive) |  | > 100 µM (inactive) | > 100 µM (inactive) | > 100 µM (inactive) | 36.6 µM (inactive) | > 100 µM (inactive) | > 100 µM | 26.5 µM (inactive) | > 100 µM (inactive) | 53.6 µM (inactive) | > 100 µM (inactive) | 76 µM (inactive) | 1.32 µM (inactive) | > 100 µM (inactive)
12 | c1ccc(/C(=N/Nc2cnccn2)c2ncccn2)cc1 | > 100 µM (inactive) | 39 µM (inactive) | 35.7 µM (inactive) | > 100 µM (inactive) | > 100 µM (inactive) | 27.4 µM (inactive) |  | 50.9 µM (inactive) | 67.9 µM (inactive) | > 100 µM (inactive) | 28.6 µM (inactive) | > 100 µM (inactive) | 50.6 µM | > 100 µM (inactive) | > 100 µM (inactive) | 46 µM (inactive) | > 100 µM (inactive) | > 100 µM (inactive) |  | 
